This is an account of results in US4863963A, “Novel cinnamoylamide derivatives” (Ono Pharmaceutical Co., Ltd., priority 1987, dated 1989).

The term IC50 denotes the midpoint of a concentration-inhibition curve. Higher therefore signals lower potency.

The experiment deals with 5α-reductase. The experiment can be described thus: Inhibitory activity on 5α-reductase in vitro (conversion of [4-C^14]-testosterone to dihydrotestosterone). Format: biochemical. Conditions: male rat prostate enzyme, 60 mins at 37° C., pH 7.4; compounds of the present invention. Here is the method:
Inhibitory activity on 5-reductase in vitro
The test was carried out with reference to the method of J. Shimazaki et al [See Endocrinol, Japon., 18, 179 (1971)).]
Male rat's prostate (4 g) was homogenized with its triple volume of 0.1M HEPES buffer (PH 7.4) including 0.25M cane sugar and was centrifuged at 3000 r.p.m. for 10 mins.
The precipitate was suspended into the buffer solution described above (10 ml), and the suspension was centrifuged at 3000 r.p.m for 5 mins. The resulting precipitate was suspended in the buffer solution(3 ml) described above and was used as a sauce of enzyme.
A reaction mixture (total volume 0.1 ml) of [4-C^14 ]-testosterone (1.5 n mol, 1.5×10^3 cpm), NADPH (0.5 μmol), enzyme solution (0.03 ml) described above and several kinds of concentration of the compounds in the present invention was incubated for 60 mins at 37° C. Enzyme reaction was quenched by addition of a mixture (0.4 ml) of chloroform and methanol (1:2), and the mixture was centrifuged at 2000 r.p.m for 3 mins. The supernatant (50 μl) was spotted on silica gel thin layer plate. The spot on the plate was developed with a mixture of chloroform, methanol and acetic acid (99.2:0. 6:0.2). Radioactivity of dihydrotestosteron generated on plate was measured by TLC scanner of radio-autography and inhibitory ratio was calculated.
As to `CCCCCOc1c(Cl)cc(/C(C)=C/C(=O)Nc2ccccc2OCCCC(=O)O)cc1Cl` [Example 1, 4-[2-(3,5-dichloro-4-pentyloxy-β-methylcinnamoylamino)phenoxy]butanoic acid], the IC50 turned out to be 90 nM. The figure for `CCCCCOc1c(OC)cc(/C(C)=C/C(=O)Nc2ccccc2OCCCC(=O)O)cc1OC` [Example 1-1, 4-[2-(3,5-dimethoxy-4-pentyloxy-β-methylcinnomoylamino)phenoxyl] butanoic acid] is 1600 nM; for `CCCCCOc1cc(/C(C)=C/C(=O)Nc2ccccc2OCCCC(=O)O)cc(OCCCCC)c1OCCCCC` [Example 1-2] it is 1800 nM; for `CCCCCOc1c(C)cc(/C(C)=C/C(=O)Nc2ccccc2OCCCC(=O)O)cc1C` [Example 1-3, 4-[2-(3,5-dimethyl-4-pentyloxy-β-methylcinnamoylamino)phenoxy] butanoic acid] it is 2100 nM.

Turning to `COc1c(C(C)(C)C)cc(/C(C)=C/C(=O)Nc2ccccc2OCCCC(=O)O)cc1C(C)(C)C` [Example 1-4, 4-[2-(3,5-di-tert-butyl-methoxy-β-methylcinnamoylamino)phenoxy] butanoic acid], the IC50 stood at 1000 nM. The value for `CCCCCOc1ccc(/C(C)=C/C(=O)Nc2ccccc2OCCCC(=O)O)c(Cl)c1Cl` [Example 1-5, 4-[2-(2,3-dichloro-4-pentyloxy-β-methylcinnomoylamino)phenoxy] butanoic acid] was 5600 nM. The value for `CCCCOc1c(Cl)cc(/C(C)=C/C(=O)Nc2ccccc2OCCCC(=O)O)cc1Cl` [Example 1-6, 4-[2-(3,5-dichloro-4-butoxy-β-methylcinnamoylamino)phenyoxy] butanoic acid] was 1600 nM; that for `CCCOc1cc(/C(C)=C/C(=O)Nc2ccccc2OCCCC(=O)O)cc(OCCC)c1OCCC` [Example 1-7, 4-[2-(3,4,5-tripropoxy-β-methylcinnamoylamino)phenoxy] butanoic acid] was 3300 nM. The figure for `CCCCOc1cc(/C(C)=C/C(=O)Nc2ccccc2OCCCC(=O)O)cc(OCCCC)c1OCCCC` [Example 1-8] is 1700 nM; for `CCOc1cc(/C(C)=C/C(=O)Nc2ccccc2OCCCC(=O)O)cc(OCC)c1OCC` [Example 1-9, 4-[2-(3,4,5-triethoxy-β-methylcinnamoylamino)phenoxy] butanoic acid] it is 9700 nM.

`C/C(=C\C(=O)Nc1ccccc1OCCCC(=O)O)c1ccc(CC(C)C)cc1` [Example 1-10, 4-[2-(4-isobutyl-β-methylcinnamoylamino)phenoxy] butanoic acid] had an IC50 of 110 nM.

In turn, `CCCCc1ccc(/C(C)=C/C(=O)Nc2ccccc2OCCCC(=O)O)cc1` [Example 1-11, 4-[2-(4-butyl-β-methylcinnomoylamino)phenoxy] butanoic acid] came in with an IC50 of 200 nM.

The molecule `CCCc1ccc(/C(C)=C/C(=O)Nc2ccccc2OCCCC(=O)O)cc1` [Example 1-12, 4-[2-(4-propyl-β-methylcinnamoylamino)phenoxy] utanoic acid] returned an IC50 of 260 nM.

Regarding `CCCCOc1ccc(/C(C)=C/C(=O)Nc2ccccc2OCCCC(=O)O)cc1` [Example 1-13, 4-[2-(4-butoxy-β-methylcinnamoylamino)phenoxy] utanoic acid], the IC50 came out at 380 nM. The figure for `CCC(C)c1ccc(/C(C)=C/C(=O)Nc2ccccc2OCCCC(=O)O)cc1` (stereo not drawn) [Example 1-14, 4-[2-(4-sec-butyl-β-methylcinnomoylamino)phenoxy] butanoic acid] is 280 nM; for `CCCCCOc1cc(/C(C)=C/C(=O)Nc2ccccc2OCCCC(=O)O)c([N+](=O)[O-])cc1OCCCCC` [Example 1-15, 4-[2-(2-nitro-4,5-dipentyloxy-β-methylcinnomoylamino)phenoxy] butanoic acid] it is 2200 nM; for `CCCCCOc1cc(/C=C(\C)C(=O)Nc2ccccc2OCCCC(=O)O)cc(OCCCCC)c1OCCCCC` [Example 1-16] it is 530 nM.
